Our source for the Ki values is patent US12617797B2, “Substituted pyrazolo [1,5-a]pyrimidines having multimodal activity against pain” (ESTEVE PHARMACEUTICALS, S.A., priority 2020, dated 2026).

pKi: −log10 of the molar value.

In assay [1] the target is Human α2δ-1 subunit of Cav2.2 calcium channel (Homo sapiens, UniProt P54289). Put plainly: Human α2δ-1 subunit of Cav2.2 calcium channel assay ([3H]-gabapentin binding). The settings on record: binding to the α2δ-1 subunit of voltage-gated calcium channels expressed as Ki; + also covers inhibition between 1% and 50%. As for the experimental part:
Biological Activity Pharmacological Study Human α2δ-1 Subunit of Cav2.2 Calcium Channel Assay
Human α2δ-1 enriched membranes (2.5 μg) were incubated with 15 nM of radiolabeled [^3H]-Gabapentin in assay buffer containing Hepes-KOH 10 mM, pH 7.4. NSB (non specific binding) was measured by adding 10 μM pregabalin. The binding of the test compound was measured at either one concentration (% inhibition at 1 or 10 μM) or five different concentrations to determine affinity values (Ki). After 60 min incubation at 27° C., binding reaction was terminated by filtering through Multiscreen GF/C (Millipore) presoaked in 0.5% polyethyleneimine in Vacuum Manifold Station, followed by 3 washes with ice-cold filtration buffer containing 50 mM Tris-HCl, pH 7.4. Filter plates were dried at 60° C. for 1 h and 30 μL of scintillation cocktail were added to each well before radioactivity reading. Readings were performed in a Trilux 1450 Microbeta radioactive counter (Perkin Elmer).

The target of assay [2] is T1, Human σ1 receptor (Homo sapiens, UniProt Q99720).
T1 construct: expressed in transfected cells; host or cells: HEK-293
Put plainly: Human σ1 receptor radioligand assay ([3H](+)-pentazocine binding, transfected HEK-293 membranes). The note with it: binding to σ1 receptor expressed as Ki; + also covers inhibition between 1% and 50%; read-out: σ-1 binding. Here is the method:
Human σ1 Receptor Radioligand Assay
Transfected HEK-293 membranes (7 μg) were incubated with 5 nM of [^3H](+)-pentazocine in assay buffer containing Tris-HCl 50 mM at pH 8. NBS (non-specific binding) was measured by adding 10 μM haloperidol. The binding of the test compound was measured at either one concentration (% inhibition at 1 or 10 μM) or five different concentrations to determine affinity values (Ki). Plates were incubated at 37° C. for 120 minutes. After the incubation period, the reaction mix was then transferred to MultiScreen HTS, FC plates (Millipore), filtered and plates were washed 3 times with ice-cold 10 mM Tris-HCL (pH7.4). Filters were dried and counted at approximately 40% efficiency in a MicroBeta scintillation counter (Perkin-Elmer) using EcoScint liquid scintillation cocktail.

Chain of Human α2δ-1 subunit of Cav2.2 calcium channel (P54289 25-1103): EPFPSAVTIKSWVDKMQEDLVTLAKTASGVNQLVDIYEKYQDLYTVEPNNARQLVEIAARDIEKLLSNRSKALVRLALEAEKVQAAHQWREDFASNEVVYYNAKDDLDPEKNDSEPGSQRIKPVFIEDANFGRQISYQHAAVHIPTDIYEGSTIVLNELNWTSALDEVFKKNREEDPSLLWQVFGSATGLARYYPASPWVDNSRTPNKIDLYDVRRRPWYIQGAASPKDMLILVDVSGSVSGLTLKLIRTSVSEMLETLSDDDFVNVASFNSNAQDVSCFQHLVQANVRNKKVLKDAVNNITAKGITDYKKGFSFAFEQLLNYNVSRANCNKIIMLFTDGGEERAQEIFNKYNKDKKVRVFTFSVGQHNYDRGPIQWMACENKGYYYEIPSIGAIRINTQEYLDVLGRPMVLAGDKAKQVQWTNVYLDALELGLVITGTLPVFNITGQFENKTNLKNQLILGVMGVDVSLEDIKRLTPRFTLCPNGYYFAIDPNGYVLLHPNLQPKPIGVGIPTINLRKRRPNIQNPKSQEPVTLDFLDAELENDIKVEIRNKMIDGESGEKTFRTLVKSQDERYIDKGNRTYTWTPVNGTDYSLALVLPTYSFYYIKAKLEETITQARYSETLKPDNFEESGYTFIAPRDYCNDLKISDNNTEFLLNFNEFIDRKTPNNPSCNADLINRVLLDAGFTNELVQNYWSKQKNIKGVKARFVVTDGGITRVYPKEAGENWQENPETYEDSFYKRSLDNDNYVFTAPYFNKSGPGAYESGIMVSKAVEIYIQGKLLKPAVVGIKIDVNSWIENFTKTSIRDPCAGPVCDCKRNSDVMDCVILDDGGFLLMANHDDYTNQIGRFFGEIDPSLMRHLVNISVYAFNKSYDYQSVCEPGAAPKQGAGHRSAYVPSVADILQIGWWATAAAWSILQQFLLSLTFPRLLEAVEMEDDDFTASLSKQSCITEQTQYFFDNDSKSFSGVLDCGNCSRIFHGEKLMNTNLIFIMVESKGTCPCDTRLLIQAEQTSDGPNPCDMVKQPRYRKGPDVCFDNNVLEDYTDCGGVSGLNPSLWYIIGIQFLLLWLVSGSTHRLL
T1 sequence (Q99720 whole entry): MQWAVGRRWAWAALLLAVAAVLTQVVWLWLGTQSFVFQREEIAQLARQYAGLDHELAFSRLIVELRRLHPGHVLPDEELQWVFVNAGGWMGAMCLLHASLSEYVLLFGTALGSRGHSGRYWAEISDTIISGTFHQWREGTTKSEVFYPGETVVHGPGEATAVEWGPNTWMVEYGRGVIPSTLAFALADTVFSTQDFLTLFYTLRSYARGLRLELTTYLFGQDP

As for `Cc1cnc2c(-c3ccncc3)c(C)nn2c1C1CCCN(Cc2ccccc2)C1` (stereo not shown) [Example 58, 7-(1-Benzylpiperidin-3-yl)-2,6-dimethyl-3-(pyridin-4-yl)pyrazolo[1,5-a]pyrimidine], the pKi is 5.30 to 6.30 in assay [1] and less than 6.00 in assay [2].

Regarding `Cc1cc(C2CCCN(Cc3ccccc3)C2)n2nc(C)c(-c3ccncc3)c2n1` (stereo not shown) [Example 59, 7-(1-Benzylpiperidin-3-yl)-2,5-dimethyl-3-(pyridin-4-yl)pyrazolo[1,5-a]pyrimidine], the pKi in assay [1] is 5.30 to 6.30; in assay [2] it was less than 6.00.

In the case of `CCc1nn2c(C3CCCN(Cc4ccccc4)C3)ccnc2c1-c1ccncc1` (stereo not shown) [Example 60, 7-(1-Benzylpiperidin-3-yl)-2-ethyl-3-(pyridin-4-yl)pyrazolo[1,5-a]pyrimidine], the pKi in assay [1] was 5.30 to 6.30; in assay [2] it was less than 6.00.

Take `CNCc1cn(-c2cccc(-c3c(C)nn4c(C5CCCN(Cc6ccccc6)C5)ccnc34)c2)nn1` (stereo not shown) [Example 61, 1-(1-(3-(7-(1-Benzylpiperidin-3-yl)-2-methylpyrazolo[1,5-a]pyrimidin-3-yl)phenyl)-1H-1,2,3-triazol-4-yl)-N-methylmethanamine]: the pKi in assay [1] is 5.30 to 6.30; in assay [2], less than 6.00.

Turning to `CNCc1cc(-c2c(C)nn3c(C4CCCN(Cc5ccccc5)C4)ccnc23)ccn1` (stereo not shown) [Example 62, 1-(4-(7-(1-Benzylpiperidin-3-yl)-2-methylpyrazolo[1,5-a]pyrimidin-3-yl)pyridin-2-yl)-N-methylmethanamine], the pKi in assay [1] was 5.30 to 6.30; in assay [2] it was less than 6.00.

Consider `Cc1cc2nccc(C3CCCN(Cc4ccccc4F)C3)n2n1` (stereo not shown) [Example 63, 7-(1-(2-Fluorobenzyl)piperidin-3-yl)-2-methylpyrazolo[1,5-a]pyrimidine], for which the pKi in assay [1] is less than 5.30; in assay [2] it was less than 6.00.

For the molecule `CCCCN1CCCC(c2ccnc3cc(C)nn23)C1` (stereo not shown) [Example 64, 7-(1-Butylpiperidin-3-yl)-2-methylpyrazolo[1,5-a]pyrimidine], the pKi was less than 5.30 in assay [1] and greater than 6.30 in assay [2].

On to `Cc1cc2nccc(C3CCCN(Cc4c(F)cccc4F)C3)n2n1` (stereo not shown) [Example 65, 7-(1-(2,6-Difluorobenzyl)piperidin-3-yl)-2-methylpyrazolo[1,5-a]pyrimidine], for which the pKi in assay [1] is 5.30 to 6.30; in assay [2], less than 6.00.

`Cc1cc2nccc(C3CCCN(Cc4ccccn4)C3)n2n1` (stereo not shown) [Example 66, 2-Methyl-7-(1-(pyridin-2-ylmethyl)piperidin-3-yl)pyrazolo[1,5-a]pyrimidine]: the pKi is less than 5.30 in assay [1] and less than 6.00 in assay [2].

As to `Cc1cc2nccc(C3CCCN(CCc4ccccc4)C3)n2n1` (stereo not shown) [Example 67, 2-Methyl-7-(1-phenethylpiperidin-3-yl)pyrazolo[1,5-a]pyrimidine], the pKi was less than 5.30 in assay [1] and less than 6.00 in assay [2].

`Cc1cc2nccc(C3CCCN(Cc4cccc(O)c4)C3)n2n1` (stereo not shown) [Example 68, 3-((3-(2-Methylpyrazolo[1,5-a]pyrimidin-7-yl)piperidin-1-yl)methyl)phenol]: the pKi in assay [1] is less than 5.30; in assay [2] it was less than 6.00.

Regarding `CCN1CCCC(c2ccnc3c(-c4ccncc4)c(C)nn23)C1` (stereo not shown) [Example 69, 7-(1-Ethylpiperidin-3-yl)-2-methyl-3-(pyridin-4-yl)pyrazolo[1,5-a]pyrimidine], the pKi in assay [1] was less than 5.30; in assay [2] it was less than 6.00.

In the case of `CCCN1CCCC(c2ccnc3c(-c4ccncc4)c(C)nn23)C1` (stereo not shown) [Example 70, 2-Methyl-7-(1-propylpiperidin-3-yl)-3-(pyridin-4-yl)pyrazolo[1,5-a]pyrimidine], the values for the pKi in assay [1] and in assay [2] were less than 5.30 and less than 6.00, respectively.

In the case of `Cc1nn2c(C3CCCN(CC(C)C)C3)ccnc2c1-c1ccncc1` (stereo not shown) [Example 71, 7-(1-Isobutylpiperidin-3-yl)-2-methyl-3-(pyridin-4-yl)pyrazolo[1,5-a]pyrimidine], the pKi in assay [1] is less than 5.30; in assay [2], less than 6.00.

Turning to `Cc1nn2c(C3CCCN(Cc4ccccn4)C3)ccnc2c1-c1ccncc1` (stereo not shown) [Example 72, 2-Methyl-7-(1-(pyridin-2-ylmethyl)piperidin-3-yl)-3-(pyridin-4-yl)pyrazolo[1,5-a]pyrimidine], the pKi is 5.30 to 6.30 in assay [1] and less than 6.00 in assay [2].

For the molecule `Cc1cnc2c(-c3ccncc3)cnn2c1C1CCCN(CCc2ccccc2)C1` (stereo not shown) [Example 73, 6-Methyl-7-(1-phenethylpiperidin-3-yl)-3-(pyridin-4-yl)pyrazolo[1,5-a]pyrimidine], the pKi in assay [1] is less than 5.30; in assay [2], greater than 6.30.

For the molecule `Cc1cnc2c(-c3ccncc3)cnn2c1C1CCCN(Cc2ccccn2)C1` (stereo not shown) [Example 74, 6-Methyl-7-(1-(pyridin-2-ylmethyl)piperidin-3-yl)-3-(pyridin-4-yl)pyrazolo[1,5-a]pyrimidine], the pKi in assay [1] was 5.30 to 6.30; in assay [2], less than 6.00.

Turning to `Cc1ccccc1CN1CCCC(c2ccnc3c(-c4ccncc4)c(C)nn23)C1` (stereo not shown) [Example 75, 2-Methyl-7-(1-(2-methylbenzyl)piperidin-3-yl)-3-(pyridin-4-yl)pyrazolo[1,5-a]pyrimidine], the pKi in assay [1] is 5.30 to 6.30; in assay [2], less than 6.00.

On to `Cc1ccc(CN2CCCC(c3ccnc4c(-c5ccncc5)c(C)nn34)C2)cc1` (stereo not shown) [Example 76, 2-Methyl-7-(1-(4-methylbenzyl)piperidin-3-yl)-3-(pyridin-4-yl)pyrazolo[1,5-a]pyrimidine], for which the pKi in assay [1] was 5.30 to 6.30; in assay [2], 6.00 to 6.30.

Regarding `Cc1cccc(CN2CCCC(c3ccnc4c(-c5ccncc5)c(C)nn34)C2)c1` (stereo not shown) [Example 77, 2-Methyl-7-(1-(3-methylbenzyl)piperidin-3-yl)-3-(pyridin-4-yl)pyrazolo[1,5-a]pyrimidine], the pKi in assay [1] was less than 5.30; in assay [2], less than 6.00.

For the molecule `c1ccc(CN2CCCC(c3ccnc4cc(N5CCCC5)nn34)C2)cc1` (stereo not shown) [Example 78, 7-(1-Benzylpiperidin-3-yl)-2-(pyrrolidin-1-yl)pyrazolo[1,5-a]pyrimidine], the pKi in assay [1] is less than 5.30; in assay [2], 6.00 to 6.30.

As for `CN(CCO)c1cc2nccc(C3CCCN(Cc4ccccc4)C3)n2n1` (stereo not shown) [Example 79, 2-((7-(1-Benzylpiperidin-3-yl)pyrazolo[1,5-a]pyrimidin-2-yl)(methyl)amino)ethanol], the pKi in assay [1] is less than 5.30; in assay [2] it was less than 6.00.

For the molecule `CN(CCN)c1cc2nccc(C3CCCN(Cc4ccccc4)C3)n2n1` (stereo not shown) [Example 80, N^1-(7-(1-Benzylpiperidin-3-yl)pyrazolo[1,5-a]pyrimidin-2-yl)-N^1-methylethane-1,2-diamine], the results for the pKi in assay [1] and in assay [2] were 5.30 to 6.30 and less than 6.00, respectively.

For `CNCCN(C)c1cc2nccc(C3CCCN(Cc4ccccc4)C3)n2n1` (stereo not shown) [Example 81, N^1-(7-(1-Benzylpiperidin-3-yl)pyrazolo[1,5-a]pyrimidin-2-yl)-N^1,N^2-dimethylethane-1,2-diamine], the pKi in assay [1] was 5.30 to 6.30; in assay [2], less than 6.00.

`CN(c1cc2nccc(C3CCCN(Cc4ccccc4)C3)n2n1)C1CCNCC1` (stereo not shown) [Example 82, 7-(1-Benzylpiperidin-3-yl)-N-methyl-N-(piperidin-4-yl)pyrazolo[1,5-a]pyrimidin-2-amine]: the pKi was 5.30 to 6.30 in assay [1] and less than 6.00 in assay [2].

Regarding `CNCCNc1cc2nccc(C3CCCN(Cc4ccccc4)C3)n2n1` (stereo not shown) [Example 83, N^1-(7-(1-Benzylpiperidin-3-yl)pyrazolo[1,5-a]pyrimidin-2-yl)-N^2-methylethane-1,2-diamine], the pKi in assay [1] is 5.30 to 6.30; in assay [2], less than 6.00.
